{"source": "patent US8247170B2", "about": "“Detection of penicillin tolerance in Group B Streptococcus: single nucleotide polymorphisms in penicillin binding protein 4” (priority 2008, dated 2012)", "system": "GBS strains", "experiment": "Cell viability by intracellular ATP concentration after penicillin", "format": "cell-based, Group B Streptococcus", "settings": "GBS strain A909 compared to NEM316 and O90R; 100×MIC90 Penicillin G 22 hours", "experimental": "GBS strains were cultured for 18 hours at 37° C. in THB. These cultures were used to inoculate fresh THB and subsequently allowed to grow to exponential phase (OD600 0.25-0.3) at 37° C. One (1) ml of culture was centrifuged at 5,000 g for 4 min. The cell pellet was re-suspended in ATP free water. Cellular ATP was extracted by using trichloroacetic acid (TCA) (5%) for 2 min. and subsequently neutralized with Tris-EDTA-0.1M NaOAc, pH 7.75 to 10×TCA volume. The initial (in.) cellular ATP concentration ([ATP]) was measured using the ENLITEN (Promega) luciferase based reaction kit. THB cultures then treated 100×MIC90 Penicillin G for 22 hours. The experimental (exp.) cellular ATP was extracted and the concentration was measured as stated above. Based on the calculations ([ATP] exp.)/([ATP] in./O.D. in.), differences in viability were equated with the change in [ATP].\n(I) Bacterial Strains and Culture Conditions. […] Cell cultures were allowed to re-grow for an additional 24 h at 37° C. before the OD600 was measured. […] The initial (in.) cellular ATP concentration ([ATP]) was measured using the ENLITEN (Promega) luciferase based reaction kit. […] The experimental (exp.) cellular ATP was extracted and the concentration was measured as stated above. […]", "data": [{"smiles": "CC1(C)S[C@@H]2[C@H](NC(=O)Cc3ccccc3)C(=O)N2[C@H]1C(=O)O", "note": "[Penicillin G]", "values": [{"measurement": "cellular [ATP] content (FIG. 3)", "result": "significant lesser [ATP] content"}]}]}
